Reference: patent US20260144257A1, “VITAMIN B3 BASED PRESERVATIVE COMPOSITIONS” (SHARON PERSONAL CARE LTD., priority 2022, published 2026)

Tested on: tested bacteria and fungi (E. coli, S. aureus, P. aeruginosa, C. albicans, A. brasiliensis)
Assay: Challenge test of preservative efficacy in formulations (ISO 11930)
Type: cell-based
Excerpt: Escherichia coli (ATCC 8739), Staphylococcus aureus (ATCC 6538), P. aeruginosa (ATCC 9027), Candida albicans (ATCC 10231), and Aspergillus brasiliensis (ATCC 16404) were obtained from ATCC and cultured according to the manufacturer's instructions. These microorganisms are routinely used for minimum inhibitory concentration (MIC), checkerboards and challenge tests according to the US and EU recommendations for the efficacy of preservatives in the cosmetic industry. Bacterial strains were maintained in tryptic soy agar (TSA) (Hy-labs, Rehovot, Israel), while yeast and mold strains were maintained in sabouraud dextrose agar (SDA) (Hy-labs, Israel), supplemented with oxytetracycline at a concentration of 1% (Hy-labs, Israel). Preservative efficacy assays (challenge tests) were performed in order to enumerate the number of microorganisms present in a formulation containing the preservative system, while the diluent solution was supplemented with neutralizers containing 4% Tween 20 and 0.5% lecithin (Hy-labs, Israel). Challenge tests of preservative efficacy in formulations were performed according to the ISO 11930 regulations. The total count for any prior contamination was performed for all formulations. Specifically, in order to evaluate the antimicrobial and antifungal activity of the preservative system, samples were inoculated separately with each microorganism at a final concentration of 10^6 cfu/mL for bacteria and 10^5 cfu/mL for yeast and mold. Samples were incubated in the dark at 22° C. for 28 days. […] To enumerate the microorganisms at each time point, serial dilutions were made up to 10-4, and 1 mL were seeded in duplicates onto a petri dish with the appropriate media TSA/SDA (bacteria vs. yeast and mold, respectively), using the pour plate method. Plates were incubated at 32° C. for three days for bacteria while yeast and mold were incubated at 22° C. for five days until the enumeration of viable microorganisms. [table]

CCCCCCC(O)CO (stereo not drawn) [CG, Caprylyl Glycol]
preservative activity (sole application (without niacinamide)): didn't show any markable preservative activity

NC(=O)c1cccnc1 [niacinamide]
antimicrobial activity of the single agent (alone at the above concentrations (about 2.8% niacinamide or about 0.2% cationic surfactant)): only limited antimicrobial activity

polylysine
preservative activity (standalone treatment, 0.1%, non-ionic cream): didn't show any markable preservative activity
